# In patent publication US9149038B2, “4-amino-6-(heterocyclic)picolinates and 6-amino-2-(heterocyclic)pyrimidine-4-carboxylates and their use as herbicides” (Dow AgroSciences LLC, priority 2013, dated 2015):
# Where two headings read alike, the source gives them in different places.
# Test system: Direct Seeded Rice and weed species
# Assay: Postemergence herbicidal activity in direct seeded rice, visual rating after 20-22 days and probit GR20/GR50/GR80/GR90 (Table 14)
# Assay type: in vivo
# Conditions: for pest or weed control at 17.5 g/ha / pest or weed control at 35 g/ha / pest or weed control at 70 g/ha: post-emergence, 504 h, postemergence; for pest or weed control at 17.5 g/ha: 17.5 g ai/ha; for pest or weed control at 35 g/ha: 35 g ai/ha; for pest or weed control at 70 g/ha: 70 g ai/ha
# Source text: Herbicidal evaluations were made visually on a scale of 0 to 100 where 0 represents no activity and 100 represents complete plant death. Seeds or nutlets of the desired test plant species were planted in a soil matrix prepared by mixing a loam soil (43 percent silt, 19 percent clay, and 38 percent sand, with a pH of about 8.1 and an organic matter content of about 1.5 percent) and river sand in an 80 to 20 ratio. The soil matrix was contained in plastic pots with a surface area of 139.7 cm^2. When required to ensure good germination and healthy plants, a fungicide treatment and/or other chemical or physical treatment was applied. The plants were grown for 10-17 d in a greenhouse with an approximate 14-h photoperiod which was maintained at about 29° C. during the day and 26° C. during the night. Nutrients and water were added on a regular basis and supplemental lighting was provided with overhead metal halide 1000-Watt lamps as necessary. The plants were employed for testing when they reached the second or third true leaf stage. A weighed amount, determined by the highest rate to be tested, of each test compound was placed in 25 mL glass vials and dissolved in a volume of 97:3 v/v acetone-DMSO to obtain 12× stock solutions. […] The concentrated stock solutions were added to the spray solutions so that the final acetone and DMSO concentrations were 16.2% and 0.5%, respectively. Spray solutions were diluted to the appropriate final concentrations with the addition of 10 mL of an aqueous mixture of 1.5% (v/v) Agri-dex crop oil concentrate. The final spray solutions contained 1.25% (v/v) Agri-dex crop oil concentrate. Compound requirements are based upon a 12 mL application volume at a rate of 187 L/ha. Formulated compounds were applied to the plant material with an overhead Mandel track sprayer equipped with […] nozzles calibrated to deliver 187 L/ha over an application area of 0.503 square meters (m^2) at a spray height of 18 inches (43 cm) above average plant canopy height. Control plants were sprayed in the same manner with the solvent blank. The treated plants and control plants were placed in a greenhouse as described above and watered by sub-irrigation to prevent wash-off of the test compounds. After 20-22 days, the condition of the test plants, compared with that of the untreated plants, was determined visually and scored on a scale of 0 to 100 percent where 0 corresponds to no injury and 100 corresponds to complete kill and are presented as indicated in Table 4. By applying the well-accepted probit analysis as described by J. Berkson in Journal of the American Statistical Society, 48, 565 (1953) and by D. Finney in “Probit Analysis” Cambridge University Press (1952), herbicidal injury of a specific compound at various rates can be used to calculate GR20, GR50, GR80 and GR90 values, which are defined as growth reduction factors that correspond to the effective dose of herbicide required to provide plant growth reduction (GR) of 20 percent, 50 percent, 80 percent and 90 percent, respectively. Probit analysis was applied to data collected from multiple dose rates of individual compounds utilizing the procedures explained in the following examples. The data for some of the dose rates and analysis of all of the dose rates are captured in the following tables.
# [1] = BRAPP (broadleaf signalgrass, Brachiaria platyphylla), read-out: Visual Growth Reduction (%) 21 Days After Application BRAPP
# [2] = CYPDI (small-flower flatsedge, Cyperus difformis), read-out: Visual Growth Reduction (%) 21 Days After Application CYPDI
# [3] = CYPES (yellow nutsedge, Cyperus esculentus), read-out: Visual Growth Reduction (%) 21 Days After Application CYPES
# [4] = CYPIR (rice flatsedge, Cyperus iria), read-out: Visual Growth Reduction (%) 21 Days After Application CYPIR
# [5] = DIGSA (large crabgrass, Digitaria sanguinalis), read-out: Visual Growth Reduction (%) 21 Days After Application DIGSA
# [6] = ECHCG (barnyardgrass, Echinochloa crus-galli), read-out: Visual Growth Reduction (%) 21 Days After Application ECHCG
# [7] = ECHCO (junglerice, Echinochloa colonum), read-out: Visual Growth Reduction (%) 21 Days After Application ECHCO
# [8] = LEFCH (Chinese sprangletop, Leptochloa chinensis), read-out: Visual Growth Reduction (%) 21 Days After Application LEFCH
# [9] = ORYSJ (Oryza sativa, rice crop), read-out: Visual Growth Reduction (%) 21 Days After Application ORYSJ
# [10] = ORYSK (Oryza sativa, rice crop), read-out: Visual Growth Reduction (%) 21 Days After Application ORYSK
# [11] = SCPJU (Japanese bulrush, Schoenoplectus juncoides Roxb.), read-out: Visual Growth Reduction (%) 21 Days After Application SCPJU
# [12] = SEBEX (hemp sesbania, Sesbania exaltata), given as number, read-out: Visual Growth Reduction (%) 21 Days After Application SEBEX
compound,measurement,setting,value
Nc1c(F)c(-c2cc3c(cc2F)OC(F)(F)O3)nc(C(=O)O)c1Cl [Compound 13],GR50 BRAPP,"BRAPP (Brachiaria platyphylla), probit analysis, dose for 50 percent growth reduction",3 g ai/ha
same,GR80 BRAPP,"BRAPP (Brachiaria platyphylla), probit analysis, dose for 80 percent growth reduction",5 g ai/ha
same,GR90 BRAPP,"BRAPP (Brachiaria platyphylla), probit analysis, dose for 90 percent growth reduction",7 g ai/ha
same,GR50 CYPDI,"CYPDI (Cyperus difformis), probit analysis, dose for 50 percent growth reduction",0.04 g ai/ha
same,GR80 CYPDI,"CYPDI (Cyperus difformis), probit analysis, dose for 80 percent growth reduction",1 g ai/ha
same,GR90 CYPDI,"CYPDI (Cyperus difformis), probit analysis, dose for 90 percent growth reduction",2 g ai/ha
same,GR50 CYPES,"CYPES (Cyperus esculentus), probit analysis, dose for 50 percent growth reduction",0.04 g ai/ha
same,GR50 CYPIR,"CYPIR (Cyperus iria), probit analysis, dose for 50 percent growth reduction",0.04 g ai/ha
same,GR50 DIGSA,"DIGSA (Digitaria sanguinalis), probit analysis, dose for 50 percent growth reduction",0.05 g ai/ha
same,GR80 DIGSA,"DIGSA (Digitaria sanguinalis), probit analysis, dose for 80 percent growth reduction",1 g ai/ha
same,GR90 DIGSA,"DIGSA (Digitaria sanguinalis), probit analysis, dose for 90 percent growth reduction",6 g ai/ha
same,GR50 ECHCG,"ECHCG (Echinochloa crus-galli), probit analysis, dose for 50 percent growth reduction",0.01 g ai/ha
same,GR80 ECHCG,"ECHCG (Echinochloa crus-galli), probit analysis, dose for 80 percent growth reduction",1 g ai/ha
same,GR90 ECHCG,"ECHCG (Echinochloa crus-galli), probit analysis, dose for 90 percent growth reduction",10 g ai/ha
same,GR50 ECHCO,"ECHCO (Echinochloa colonum), probit analysis, dose for 50 percent growth reduction",1 g ai/ha
same,GR80 ECHCO,"ECHCO (Echinochloa colonum), probit analysis, dose for 80 percent growth reduction",3 g ai/ha
same,GR90 ECHCO,"ECHCO (Echinochloa colonum), probit analysis, dose for 90 percent growth reduction",6 g ai/ha
same,GR50 LEFCH,"LEFCH (Leptochloa chinensis), probit analysis, dose for 50 percent growth reduction",14 g ai/ha
same,GR80 LEFCH,"LEFCH (Leptochloa chinensis), probit analysis, dose for 80 percent growth reduction",25 g ai/ha
same,GR90 LEFCH,"LEFCH (Leptochloa chinensis), probit analysis, dose for 90 percent growth reduction",33 g ai/ha
same,GR20 ORYSJ,"ORYSJ (Oryza sativa, rice crop), probit analysis, dose for 20 percent growth reduction",6 g ai/ha
same,GR20 ORYSK,"ORYSK (Oryza sativa, rice crop), probit analysis, dose for 20 percent growth reduction",15 g ai/ha
same,GR50 SCPJU,"SCPJU (Schoenoplectus juncoides Roxb.), probit analysis, dose for 50 percent growth reduction",0.0001 g ai/ha
same,GR80 SCPJU,"SCPJU (Schoenoplectus juncoides Roxb.), probit analysis, dose for 80 percent growth reduction",0.0001 g ai/ha
same,GR90 SCPJU,"SCPJU (Schoenoplectus juncoides Roxb.), probit analysis, dose for 90 percent growth reduction",0.0001 g ai/ha
same,GR50 SEBEX,"SEBEX (Sesbania exaltata), probit analysis, dose for 50 percent growth reduction",11 g ai/ha
same,GR80 SEBEX,"SEBEX (Sesbania exaltata), probit analysis, dose for 80 percent growth reduction",16 g ai/ha
same,GR90 SEBEX,"SEBEX (Sesbania exaltata), probit analysis, dose for 90 percent growth reduction",20 g ai/ha
same,pest or weed control at 17.5 g/ha,[1],95 to 100%
same,pest or weed control at 35 g/ha,[1],95 to 100%
same,pest or weed control at 70 g/ha,[1],95 to 100%
same,pest or weed control at 17.5 g/ha,[2],95 to 100%
same,pest or weed control at 35 g/ha,[2],95 to 100%
same,pest or weed control at 70 g/ha,[2],95 to 100%
same,pest or weed control at 17.5 g/ha,[3],95 to 100%
same,pest or weed control at 35 g/ha,[3],95 to 100%
same,pest or weed control at 70 g/ha,[3],95 to 100%
same,pest or weed control at 17.5 g/ha,[4],95 to 100%
same,pest or weed control at 35 g/ha,[4],95 to 100%
same,pest or weed control at 70 g/ha,[4],95 to 100%
same,pest or weed control at 17.5 g/ha,[5],95 to 100%
same,pest or weed control at 35 g/ha,[5],95 to 100%
same,pest or weed control at 70 g/ha,[5],95 to 100%
same,pest or weed control at 17.5 g/ha,[6],95 to 100%
same,pest or weed control at 35 g/ha,[6],85 to 94%
same,pest or weed control at 70 g/ha,[6],95 to 100%
same,pest or weed control at 17.5 g/ha,[7],95 to 100%
same,pest or weed control at 35 g/ha,[7],95 to 100%
same,pest or weed control at 70 g/ha,[7],95 to 100%
same,pest or weed control at 17.5 g/ha,[8],60 to 74%
same,pest or weed control at 35 g/ha,[8],95 to 100%
same,pest or weed control at 70 g/ha,[8],95 to 100%
same,pest or weed control at 17.5 g/ha,[9],45 to 59%
same,pest or weed control at 35 g/ha,[9],85 to 94%
same,pest or weed control at 70 g/ha,[9],95 to 100%
same,pest or weed control at 17.5 g/ha,[10],0 to 29%
same,pest or weed control at 35 g/ha,[10],45 to 59%
same,pest or weed control at 70 g/ha,[10],60 to 74%
same,pest or weed control at 17.5 g/ha,[11],95 to 100%
same,pest or weed control at 35 g/ha,[11],95 to 100%
same,pest or weed control at 70 g/ha,[11],95 to 100%
same,pest or weed control at 17.5 g/ha,[12],95%
same,pest or weed control at 35 g/ha,[12],100%
same,pest or weed control at 70 g/ha,[12],100%
